Data on three compounds can be found in patent US9708370B2, “Azapeptides as CD36 binding compounds” (VALORISATION-RECHERCHE, LIMITED PARTNERSHIP, priority 2007, dated 2017).

Like-named read-outs stand apart in the source and are kept apart here. Starred links: 1 amine or outer side, 2 acyl side, 3 side chain; linkers in the order of their positions; H or OH if unused. Non-standard residues stand in square brackets, D forms with d. Residues, ends and D or L forms follow the SMILES beside them. *: point of attachment. azaTyr = O=C(N(Cc1ccc(O)cc1)N[*:1])[*:2]; azaLeu = CC(C)CN(N[*:1])C(=O)[*:2]; Hydrocinnamoyl = O=C(CCc1ccccc1)*

One assay deals with human GHS-R1a (Homo sapiens (Human), UniProt Q92847). The assay is described as follows: GHS-R1a binding assay, competition with 125I-ghrelin on membranes of LLC-PK1 cells expressing human GHS-R1a.
In assay [1] the test system is vascular sprouting of aortic endothelium (aortic rings). The assay is described as follows: Inhibition of microvascular sprouting from Matrigel-embedded aortic explants. It is filed as cell-based, mice. Conditions: preliminary data; compared with GHRP-6. An excerpt:
FIG. 1 illustrates disruption of vascular sprouting of aortic endothelium by azapeptide compound DBG178. Sprouting aortic endothelium (Von Willebrand factor positive) expressing CD36 is shown in the upper row of FIG. 1a. Vascular sprouting of aortic rings from C57BL/6 and CD36 null mice in the presence of DBG 178 at 10^−7M is shown in the lower row of FIG. 1a. Histograms of microvascular sprouts areas (mean±s.e.m) from aortic explants of C57BL/6 and CD36 null mice exposed to DBG concentrations from 10^−8 to 10^−6 M p<0.01 compared with control (Ctl) is shown in FIG. 1b.
Aortas were excised from 10-week-old male C57/Bl6+/+ and CD36−/− mice of C57/Bl6 background. The fibroadipose tissue was removed and aortas were sectioned into 2-mm-long cross-sections. The +/+ and −/− rings were covered by 50 μl of Matrigel and cultured for 4 days in EGM-2 medium (Clonetics Corp.). Explants were then exposed to vehicle alone or in presence of an azapeptide prototype DBG178 at the indicated concentrations (10^−8 to 10^−6 M) from day 4 to day 6 of culture in EGM-2 medium. Pictures of each individual explant were taken at day 4 and day 6 and EC growth was measured as the surface covered at day 6 minus the surface covered at day 4 Data were subject to analysis of variance (ANOVA) followed by Dunnet's post test to test for differences among groups. Outgrowing cells were characterized by double-labelling with monoclonal vWF antibody (1:100, Dako) and polyclonal CD36 (1:100, Santa Cruz) after acetone fixation using their respective alexa coupled secondary antibodies.

Another assay concerns the target CD36 (Rattus norvegicus (Rat), UniProt Q07969). Nature of the assay: CD36 receptor covalent photolabelling binding assay, competition with [125I]Tyr-Bpa-Ala-hexarelin on rat cardiac membranes. Particulars: for binding activity/affinity at CD36 in words: compared with parent peptide GHRP-6 or hexarelin. The procedure: The hearts from Sprague Dawley rats (300 g-325 g) from Charles River, used as a source of cardiac membranes, were prepared as follows: the heart was washed with ice-cold saline, and fatty and connective tissue was removed. The tissue was cut into small pieces with scissors and placed in a Sorvall centrifuge tube containing 5 ml/g of fresh tissue of Buffer A (10 mM NaHCO3, 5 mM NaN3, 10 μM Pefabloc, 0.1 μM Aprotinin, 1 μM Pepstatin A, 1 μM Leupeptin, pH 7.0). The suspension was homogenized with a Polytron at low speed, 3×15 sec. The homogenate was centrifuged at 8 700×g for 20 min and the supernatant was put on ice. The pellet was resuspended and homogenized with a Glass-teflon Potter by 5 strokes. The homogenate was centrifuged at 8 700×g for 10 min and this supernatant was combined with the first supernatant. The supernatant fluid was centrifuged at 35 000×g for 20 min, yielding a second pellet fraction that was suspended thoroughly in a glass homogenizer with a Teflon pestle in 20 ml/g of fresh tissue of Buffer B (20 mM Tris-maleate, 0.6M KCl, pH 6.8). The resulting suspension was centrifuged again at 35 000×g for 60 min. The third pellet fraction was resuspended thoroughly in a glass homogenizer with a Teflon pestle in 20 ml/g of fresh tissue of Buffer C (10 mM Tris/HCl buffer pH 7.4) followed with another centrifugation at 35 000×g for 60 min. The harvested precipitate was then suspended in a small volume (1-2 ml/g of fresh tissue) of 50 mM Tris/HCl buffer pH 7.4) containing 2 mM EGTA. The resulting membrane preparation was frozen at −80° C. Protein concentration was determined with bicinchoninic acid (BCA) method, using BSA as standard.
The iodination procedure was performed in the darkness. […] The reaction was started by adding 5 ul (3 nmol) of H2O2. The incubation was carried out at 22° C. for 5 min. The addition of H2O2 was repeated twice with 5 min incubation each time. The reaction was stopped with the addition of 1.4 ml of 0.1% TFA. The iodinated peptide was purified on a reverse-phase Vydac C18 column with a 60 min linear gradient (1 ml/min) from 20% to 50% acetonitrile (90%) in 0.1% TFA (10%).
Nonspecific binding was defined as binding not displaced by 50 μM corresponding peptide. All peptide containing solutions were diluted in Buffer B. Buffer A and B were degassed under vacuum, and used in capped tubes in order to minimize lipid peroxydation. Before the incubation period, all tubes were put under a low flow of nitrogen. All material was kept on ice and the binding assay was performed in darkness. After an incubation period of 60 min at 22° C. […] After centrifugation at 12 000×g for 15 minutes, the pellets were resuspended in 150 μl of sample buffer (62 mM Tris-HCl, pH 6.8, 2% SDS, 10% glycerol, 15% 2-mercapto-ethanol, and 0.05% bromophenol blue), and boiled for 5 min prior to being subjected to electrophoresis. Proteins (200 μg/100 μl) were separated on 7.5% SDS-PAGE (45 V overnight). The gels resulting from SDS/PAGE were fixed, colored in Coomassie Brilliant Blue R-250, dried, exposed to a storage phosphor intensifying screen (Amersham Biosciences), and analysed by using a Typhoon PhosphorImager (Amersham Biosciences) and ImageQuant 5.0 software to establish competition curves. Protein bands were quantified by densitometry. The covalent binding signal of 87 kDa was analyzed by densitometry using Typhoon Phospholmager™ (Typhoon, Amersham Biosciences) and ImageQuant 5.0® software to set competition curves.
Specific binding activities were defined as the ratio of the density of the protein band to that of a non-specific band. Results are expressed as the percentage of the density of the […] to that of the total binding band.

Setting [2] is: Table 5, read-out: IC50 Binding GHS-R1a.
Where [3] appears, read: Table 6, read-out: IC50 Binding CD36.

Chain of CD36 (Q07969 whole entry): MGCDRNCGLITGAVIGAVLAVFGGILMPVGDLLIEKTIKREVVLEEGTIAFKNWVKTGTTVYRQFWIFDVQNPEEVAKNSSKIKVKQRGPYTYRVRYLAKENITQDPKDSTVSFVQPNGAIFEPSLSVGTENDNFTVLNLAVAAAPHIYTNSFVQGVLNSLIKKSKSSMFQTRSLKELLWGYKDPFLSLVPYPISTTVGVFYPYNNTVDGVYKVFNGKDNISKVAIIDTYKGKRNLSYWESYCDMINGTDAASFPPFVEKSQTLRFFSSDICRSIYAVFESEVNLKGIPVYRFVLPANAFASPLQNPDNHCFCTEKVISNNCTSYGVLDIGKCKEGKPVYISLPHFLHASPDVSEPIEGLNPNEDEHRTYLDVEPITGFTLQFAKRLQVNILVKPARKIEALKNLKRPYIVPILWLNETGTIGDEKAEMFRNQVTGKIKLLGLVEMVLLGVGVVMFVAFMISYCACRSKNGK
Chain of human GHS-R1a (Q92847 whole entry): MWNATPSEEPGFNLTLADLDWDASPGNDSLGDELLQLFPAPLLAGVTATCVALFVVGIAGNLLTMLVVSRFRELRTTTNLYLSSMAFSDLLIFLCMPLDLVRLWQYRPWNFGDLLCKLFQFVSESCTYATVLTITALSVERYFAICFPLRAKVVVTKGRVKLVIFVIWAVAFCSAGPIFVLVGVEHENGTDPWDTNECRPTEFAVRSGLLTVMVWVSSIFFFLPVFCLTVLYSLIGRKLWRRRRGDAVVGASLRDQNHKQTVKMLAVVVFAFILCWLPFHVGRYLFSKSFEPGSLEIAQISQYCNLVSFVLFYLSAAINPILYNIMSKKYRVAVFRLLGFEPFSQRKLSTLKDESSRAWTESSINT

On to `CC(C)CN(NC(=O)[C@@H](Cc1c[nH]c2ccccc12)NC(=O)[C@@H](N)Cc1cnc[nH]1)C(=O)N[C@@H](Cc1c[nH]c2ccccc12)C(=O)N[C@H](Cc1ccccc1)C(=O)N[C@@H](CCCCN)C(N)=O` [DBG201-A, His-D-Trp-azaLeu-Trp-D-Phe-Lys-NH2] (H-H[dW][azaLeu]W[dF]K-NH2), for which the half-inhibitory concentration (IC50) on human GHS-R1a (Table 4, LLCPK-1 membranes overexpressing GHS-R1a, radioiodinated (1-28) rat ghrelin as tracer, read-out: EC50 (text: IC50 values from competition curves in GHS-R1a radioreceptor assay)) worked out at 1200 nM; at CD36 (Table 3, rat cardiac membranes, [125I]Tyr-Bpa-Ala-hexarelin as radioligand, read-out: IC50, binding affinity of aza peptide derivatives towards CD36) it was 2890 nM. Besides, the “ex vivo inhibition of neovascularization in aortic rings” value in assay [1] is “most potent inhibitory effect”. In addition, the “binding activity/affinity at CD36 in words” value on CD36 is on record as “retained significant activity similar to the parent peptide”.
`C[C@H](N)C(=O)N[C@H](Cc1c[nH]c2ccccc12)C(=O)N[C@@H](C)C(=O)NN(Cc1ccc(O)cc1)C(=O)N[C@H](Cc1ccccc1)C(=O)N[C@@H](CCCCN)C(N)=O` [ZS555-F40, Ala-D-Trp-Ala-azaTyr-D-Phe-Lys-NH2] (H-A[dW]A[azaTyr][dF]K-NH2): the IC50 at human GHS-R1a (setting [2]) is more than 10000 nM; at CD36 (setting [3]), 2950 nM. In addition, the “binding affinity for GHS-R1a receptor in words” value on human GHS-R1a (compared with GHRP-6) is reported as “decreased drastically”. Further, the “binding activity/affinity at CD36 in words” value at CD36 was “without major change”.
In the case of `C[C@H](NC(=O)[C@@H](Cc1c[nH]c2ccccc12)NC(=O)CCc1ccccc1)C(=O)NN(Cc1ccc(O)cc1)C(=O)N[C@H](Cc1ccccc1)C(=O)N[C@@H](CCCCN)C(N)=O` [ZS556, Hydrocinnamyl-D-Trp-Ala-AzaTyr-D-Phe-Lys-NH2] (Hydrocinnamoyl-[dW]A[azaTyr][dF]K-NH2), the IC50 on human GHS-R1a (setting [2]) is more than 10000 nM; at CD36 (setting [3]) it was 32500 nM.

As usually defined, the IC50 is the concentration needed to halve the response being measured.
